Measured values as given in patent publication US20230201487A1, “NEBULIZER DEVICE OPTIMIZATION FOR IMPROVED AEROSOL PARAMETERS AND USES THEREOF” (Avalyn Pharma Inc., priority 2020, published 2023).
Marks after values point to notes of the source that are not given here.

Legend:
Type in all cases: physicochemical
[1] = Aerosol head/assembled device correlation study (TOR, VMD, GSD, nebulization time), 53 aerosol heads; details: Vented, XL Device
Protocol: To establish an aerosol generator (head) specification meeting the desired delivery of 8 mL aqueous pirfenidone solution in the assembled nebulizer device 1 not exceeding 16 minute delivery time (or an 0.5 mL/min output rate), a correlation study between the head-only performance with 0.9% NaCl (saline) and the assembled nebulizer device 1 (vented, XL configuration) performance with aqueous pirfenidone was conducted. Using heads only, the aerosol characteristics total output rate (TOR), volumetric median diameter (VMD) and geometric standard deviation (GSD) were performed under constant negative pressure (−250 mbar; relative to atmospheric pressure) and under ambient, atmospheric pressure conditions (0 mbar; relative to atmospheric pressure).
These heads were either tested alone using a special apparatus (saline −250 mbar or 0 mbar) or in assembled devices (saline and aqueous pirfenidone; 8 mL vented medicine cup reservoir 3 and XL aerosol mixing chamber 8 configuration).

[2] = Respirable delivered dose during breath simulation, inspiratory filters, HPLC; parameters: Slope of respirable delivered dose: unit not given here; details: for Total respirable delivered pirfenidone dose over 8 minutes: 8 mL of 12.5 mg/mL
Protocol: For a more clinically relevant comparison, in a second analysis, of aerosol delivery parameters for pirfenidone in solution, the respirable delivered dose (RDD; amount of deposited pirfenidone from aerosol droplets less than 5 microns in diameter) was measured during breath simulation (adult breathing pattern, 500 mL tidal volume, 15 breaths/min with a 1:1 inhalation: exhalation ratio) using a Compas 2 breath simulator was used as follows. Briefly, twelve investigational eFlow® (with 6 L and 6 XL aerosol mixing chambers) with a single set of 6 (six) aerosol head class 35 (6 total heads; Table 1) were used in both (about 49 cc volume) and XL (about 98 cc volume) aerosol mixing chamber configurations and tested in duplicate with the 8 mL medicine cup reservoir under atmospheric conditions (vented) and permitting generation of negative pressure (non-vented) during nebulization. An 8 mL dose (aqueous pirfenidone solution at concentration of 12.5 mg/ml) was loaded into the medicine cup reservoir and nebulization initiated. After 2, 4, 6 and 8 min of nebulization, inspiratory filters were collected and extracted for pirfenidone quantitation using HPLC analysis. A final filter was used after 8 min to collect remaining dose. The following exemplary replicates were performed: A. Head 1/L/vented, B. Head 1/L/non-vented, C. Head 1/XL/vented, D. Head 1/XL/non-vented, and repeated in the following order: A, B, C, D, A, B, C, D. Results are shown in Table 4.

[3] = Respirable aerosol droplet output rate by laser diffraction and gravimetric total output rate, simulated breathing, eFlow nebulizer; details: for Output rate Benefit, Combined Effect (Vented + XL): vented XL vs. non-vented L
Protocol: As an initial analysis, emitted aerosol saline and pirfenidone aqueous solution formulation droplet size as a function of time was measured using a Helos, Sympatec laser under partially simulated breathing conditions (adult breathing pattern, 500 mL tidal volume, 15 breaths/min with a 1:1 inhalation: exhalation ratio) using a Compas 2 breath simulator. Briefly, twelve investigational PART eFlow® nebulizers (with 6 L and 6 XL aerosol mixing chambers) with a single set of 6 (six) aerosol head class 35 (6 total heads; Table 1) were used in both L (about 49 cc volume aerosol mixing chamber) and XL (about 98 cc volume aerosol mixing chamber) configurations and tested in triplicate with the 8 mL of pirfenidone aqueous solution medicine cup reservoir under atmospheric conditions (vented) and permitting generation of negative pressure (non-vented). The following exemplary replicates were performed: A. Head 1/L/vented, B. Head 1/L/non-vented, C. Head 1/XL/vented, D. Head 1/XL/non-vented, and repeated in the following order: A, B, C, D, A, B, C, D, A, B, C, D. Results are shown in Table 2.
In this analysis, respirable aerosol droplet output rate of saline and pirfenidone formulation was determined by multiplying the respirable fraction (RF; percent emitted aerosol droplets with a diameter less than 5 microns at 20 second increments) by total output rate (TOR; calculated by dividing the total nebulizer weight loss by nebulization duration). Saline was made as 150 mM sodium chloride in water, while the pirfenidone formulation was 12.5 mg/mL pirfenidone in 5 mM citrate buffer, pH 6.0, 150 mM sodium chloride and 0.75 mM sodium saccharin in water. Duration to nebulize 8 mL saline was 8.6 min, 12.6 min, 8.5 min and 12.0 min for vented “L”, non-vented “L”, vented “XL” and non-vented “XL”, respectively. Duration to nebulize 8 mL AP01 was 8.4 min, 12.3 min, 8.3 min and 12.4 min for vented “L”, non-vented “L”, vented “XL” and non-vented “XL”, respectively.

Cc1ccc(=O)n(-c2ccccc2)c1 [pirfenidone, 5-methyl-1-phenyl-2-(1H)-pyridone]
Total Output Rate (TOR), Average [1]: 0.782 g/min
Total Output Rate (TOR), Max [1]: 1.049 g/min
Total Output Rate (TOR), Min [1]: 0.382 g/min
Theoretical total delivery rate ([2]; assuming a fifty percent respirable delivered dose, 12.5 mg/mL): 6.25 mg per minute
Slope of respirable delivered dose ([2]; non-vented (NV), L aerosol mixing chamber): −0.16
Respirable Delivered Dose ([2]; non-vented (NV), L aerosol mixing chamber, 0-2 min): 5.75 mg/time increment
Respirable Delivered Dose ([2]; non-vented (NV), L aerosol mixing chamber, 2-4 min): 5.71 mg/time increment
Respirable Delivered Dose ([2]; non-vented (NV), L aerosol mixing chamber, 4-6 min): 5.49 mg/time increment
Respirable Delivered Dose ([2]; non-vented (NV), L aerosol mixing chamber, 6-8 min): 5.27 mg/time increment
Slope of respirable delivered dose ([2]; non-vented (NV), XL aerosol mixing chamber): −0.20
Respirable Delivered Dose ([2]; non-vented (NV), XL aerosol mixing chamber, 0-2 min): 6.50 mg/time increment
Respirable Delivered Dose ([2]; non-vented (NV), XL aerosol mixing chamber, 2-4 min): 6.44 mg/time increment
Respirable Delivered Dose ([2]; non-vented (NV), XL aerosol mixing chamber, 4-6 min): 6.37 mg/time increment
Respirable Delivered Dose ([2]; non-vented (NV), XL aerosol mixing chamber, 6-8 min): 5.87 mg/time increment
RDD Benefit, Increased Aerosol mixing chamber (XL) ([2]; non-vented L vs. non-vented XL, 0-2 min): 13.15^g %
RDD Benefit, Increased Aerosol mixing chamber (XL) ([2]; non-vented L vs. non-vented XL, 6-8 min): 11.28^g %
Respirable delivered dose per minute ([2]; non-vented L, 12.5 mg/mL): 2.78 mg/min
Total respirable delivered pirfenidone dose over 8 minutes ([2]; non-vented L): 22.22 mg
Slope of respirable delivered dose ([2]; vented (V), L aerosol mixing chamber): 0.12
Respirable Delivered Dose ([2]; vented (V), L aerosol mixing chamber, 0-2 min, 8 mL of 12.5 mg/ml): 5.97 mg/time increment
Respirable Delivered Dose ([2]; vented (V), L aerosol mixing chamber, 2-4 min): 6.16 mg/time increment
Respirable Delivered Dose ([2]; vented (V), L aerosol mixing chamber, 4-6 min): 6.33 mg/time increment
Respirable Delivered Dose ([2]; vented (V), L aerosol mixing chamber, 6-8 min): 6.32 mg/time increment
Slope of respirable delivered dose ([2]; vented (V), XL aerosol mixing chamber): 0.13
Respirable Delivered Dose ([2]; vented (V), XL aerosol mixing chamber, 0-2 min): 6.65 mg/time increment
Respirable Delivered Dose ([2]; vented (V), XL aerosol mixing chamber, 2-4 min): 7.07 mg/time increment
Respirable Delivered Dose ([2]; vented (V), XL aerosol mixing chamber, 4-6 min): 7.01 mg/time increment
Respirable Delivered Dose ([2]; vented (V), XL aerosol mixing chamber, 6-8 min): 7.11 mg/time increment
RDD Benefit, Increased Aerosol mixing chamber (XL) ([2]; vented L vs. vented XL, 0-2 min): 11.35^e %
RDD Benefit, Increased Aerosol mixing chamber (XL) ([2]; vented L vs. vented XL, 6-8 min): 12.49^e %
Respirable delivered dose per minute ([2]; vented XL, 12.5 mg/mL): 3.48 mg/min
Total respirable delivered pirfenidone dose over 8 minutes ([2]; vented XL): 27.84 mg
Benefit of aerosol mixing chamber volume on respirable aerosol droplet output rate ([3]; all device configurations regardless of medicine cup pressure): −2 to −5.5%
Output rate Benefit, Maintaining Atmospheric Pressure (Vented) ([3]; vented L vs. non-vented L, 0-2 min): about +19.4%
Output rate Benefit, Maintaining Atmospheric Pressure (Vented) ([3]; vented L vs. non-vented L, 6-8 min): about +17.5%
Output rate Benefit, Combined Effect (Vented + XL) ([3]; 0-2 min): about +17%
Output rate Benefit, Combined Effect (Vented + XL) ([3]; 6-8 min): ~+12.6%
Output rate Benefit, Maintaining Atmospheric Pressure (Vented) ([3]; vented XL vs. non-vented XL, 0-2 min): about +23.8%
Output rate Benefit, Maintaining Atmospheric Pressure (Vented) ([3]; vented XL vs. non-vented XL, 6-8 min): about +17%
